What was measured:
[1] = molecular target: Human LATS2 catalytic domain (Homo sapiens (Human), UniProt Q9NRM7); assay: LATS2 High ATP HTRF Assay; type: biochemical; conditions: no asterisk: LATS2 High ATP HTRF Assay, 5000 μM ATP, 0.05 nM LATS2
Method in brief: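 LATS2 catalytic domain (G553-V1088) co-purified with Mob1b, 0.05 nM, pre-incubated 10 min with compound, then 5000 μM ATP and 0.5 μM STK S1 peptide in HEPES pH7.2 for 2 h at room temperature. HTRF 665/620 nm read; IC50 by four-parameter fit, Ki via Cheng-Prusoff with ATP Km 105 μM.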

[2] = system: TAZ nuclear translocation in SW1990 cells; assay: TAZ Nuclear Translocation Assay; type: cell-based; conditions: Homo sapiens, 4 hours
Method in brief: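 SW1990 cells in RPMI1640/10% FBS treated with compounds for 4 h at 37 °C, then fixed and immunostained for TAZ with Hoechst nuclear counterstain and imaged by high-content imaging. Read-out is the nuclear/cytoplasmic-ring fluorescence ratio, normalized to DMSO (0%) and an inhibitor control (100%); EC50 from four-parameter fit.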

[3] = system: pYAP(Ser127) in SW1990 cells; assay: pYAP(Ser127) HTRF Cellular Assay; type: cell-based; conditions: Homo sapiens, 4 hours
Description: The SW1990 cells were seeded at 8000 cells/well by adding 30 μL/well of cells in RPMI1640, 10% FBS, 2 mM glutamine culture media to a 384-well plate (Corning 3570). The cells were incubated overnight at 37° C. Next day, compounds were directly added to the cells using the Echo Liquid Handler (Labcyte), incubate at 37° C. for 4 hours.
The HTRF assay was performed using the Cisbio phospho-YAP Ser127 HTRF kit (64YAPPEG). The media was aspirated from the cells. 20 μL of 1X lysis/blocking buffer was added to the cells, gently shake for 30 minutes at room temperature. 1 μL of the premixed antibody solution (1:40 dilution of each phospho-YAP Eu Cryptate antibody and phospho-YAP d2 antibody) was added to the cells. The plate was sealed and incubated overnight at room temperature. The HTRF (665 nm/620 nm) signal was read on the PHERAstar reader (BMG Labtech). The EC50 values were calculated by fitting the % inhibition with a nonlinear four-parameter logistical equation.

Human LATS2 catalytic domain, sequence (Q9NRM7 553-1088): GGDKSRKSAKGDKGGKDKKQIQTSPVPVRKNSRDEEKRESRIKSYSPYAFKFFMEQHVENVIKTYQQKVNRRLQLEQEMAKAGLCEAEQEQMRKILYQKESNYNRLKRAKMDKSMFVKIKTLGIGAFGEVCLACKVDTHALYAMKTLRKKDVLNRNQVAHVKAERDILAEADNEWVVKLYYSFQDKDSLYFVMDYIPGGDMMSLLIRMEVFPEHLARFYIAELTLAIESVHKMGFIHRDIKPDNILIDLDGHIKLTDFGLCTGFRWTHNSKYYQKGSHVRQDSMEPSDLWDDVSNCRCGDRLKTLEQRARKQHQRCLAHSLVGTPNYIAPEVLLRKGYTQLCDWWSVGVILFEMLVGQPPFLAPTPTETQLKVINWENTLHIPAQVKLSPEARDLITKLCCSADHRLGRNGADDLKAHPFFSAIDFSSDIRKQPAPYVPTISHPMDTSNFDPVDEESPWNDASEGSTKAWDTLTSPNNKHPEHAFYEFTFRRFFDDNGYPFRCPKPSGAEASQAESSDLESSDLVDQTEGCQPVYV
Human LATS2 catalytic domain, sequence (Q7L9L4 whole entry partner, the tested form may be a part): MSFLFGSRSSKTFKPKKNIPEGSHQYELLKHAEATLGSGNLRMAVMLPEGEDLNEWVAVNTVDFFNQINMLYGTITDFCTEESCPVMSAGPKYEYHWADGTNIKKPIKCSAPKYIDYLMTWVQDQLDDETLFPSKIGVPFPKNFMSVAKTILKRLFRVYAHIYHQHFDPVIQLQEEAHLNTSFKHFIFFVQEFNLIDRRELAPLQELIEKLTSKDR

Structure (SMILES)	Ki [1] [nM]	EC50 [2] [nM]	EC50 [3] [nM]
Cc1n[nH]cc1-c1nc(N2CCC3(CCN(C)C3)CC2)c2ccncc2n1 [Compound 143, 2-(3-methyl-1H-pyrazol-4-yl)-4-(2-methyl-2,8-diazaspiro[4.5]decan-8-yl)pyrido[3,4-d]pyrimidine]	0.15	700	1000
OCCN1CCC2(CCN(c3nc(-c4ccncc4)nc4cnccc34)CC2)C1 [Compound 114, 2-(8-(2-(pyridin-4-yl)pyrido[3,4-d]pyrimidin-4-yl)-2,8-diazaspiro[4.5]decan-2-yl)ethanol]	0.31	610	550
Cc1n[nH]cc1-c1nc(N2CCC3(CCN(C)C3)CC2)c2cc(Cc3ccccn3)ncc2n1 [Example 238, 2-(3-methyl-1H-pyrazol-4-yl)-4-(2-methyl-2,8-diazaspiro[4.5]decan-8-yl)-6-(pyridin-2-ylmethyl)pyrido[3,4-d]pyrimidine]	0.25	2300	–
F[C@H]1CNCC12CCN(c1nc(-c3ccncc3)nc3cnccc13)CC2 [Example 235, (R)-4-(4-fluoro-2,8-diazaspiro[4.5]decan-8-yl)-2-(pyridin-4-yl)pyrido[3,4-d]pyrimidine]	1.3	1800	–
CC(=O)NCCN1CCC2(CCN(c3nc(-c4ccncc4)nc4cnccc34)CC2)C1 [Compound 123, N-(2-(8-(2-(pyridin-4-yl)pyrido[3,4-d]pyrimidin-4-yl)-2,8-diazaspiro[4.5]decan-2-yl)ethyl)acetamide]	1.09	2100	–
F[C@@H]1CNCC12CCN(c1nc(-c3ccncc3)nc3cnccc13)CC2 [Example 234, (S)-4-(4-fluoro-2,8-diazaspiro[4.5]decan-8-yl)-2-(pyridin-4-yl)pyrido[3,4-d]pyrimidine]	4.5	4200	–
Clc1cncc2nc(-c3ccncc3)nc(N3CCC4(CCNC4)CC3)c12 [Compound 161, 5-chloro-2-(pyridin-4-yl)-4-(2,8-diazaspiro[4.5]decan-8-yl)pyrido[3,4-d]pyrimidine]	5.55	1900	–
CN1CCC2(CCN(c3nc(-c4ccncc4)nc4c(C#CC(C)(C)O)nccc34)CC2)C1 [Compound 247, 2-methyl-4-(4-(2-methyl-2,8-diazaspiro[4.5]decan-8-yl)-2-(pyridin-4-yl)pyrido[3,4-d]pyrimidin-8-yl)but-3-yn-2-ol]	0.039	310	–
CC(C)Oc1cncc2nc(-c3ccncc3)nc(N3CCC4(CCNC4)CC3)c12 [Compound 248, 5-isopropoxy-2-(pyridin-4-yl)-4-(2,8-diazaspiro[4.5]decan-8-yl)pyrido[3,4-d]pyrimidine]	0.02	110	–
COC[C@H]1CC2(CCN(c3nc(-c4ccncc4)nc4cnccc34)CC2)CN1 (single isomer, unassigned) [Example 221]	0.32	230	–
COCCOc1cncc2nc(-c3ccncc3)nc(N3CCC4(CCNC4)CC3)c12 [Compound 263, 5-(2-methoxyethoxy)-2-(pyridin-4-yl)-4-(2,8-diazaspiro[4.5]decan-8-yl)pyrido[3,4-d]pyrimidine]	0.11	1200	–
Cc1n[nH]cc1-c1nc(N2CCC3(CCN(C[C@H](C)O)C3)CC2)c2ccncc2n1 (single isomer, unassigned) [Compound 144]	0.086	690	–
CC(C)(O)CN1CCC2(CCN(c3nc(-c4ccncc4)nc4cncc(OC5COC5)c34)CC2)C1 [Compound 268, 2-Methyl-1-(8-(5-(oxetan-3-yloxy)-2-(pyridin-4-yl)pyrido[3,4-d]pyrimidin-4-yl)-2,8-diazaspiro[4.5]decan-2-yl)propan-2-o0]	0.034	130	–
CN1CCC2(CCN(c3nc(-c4ccncc4)nc4cncc(O)c34)CC2)C1 [Compound 259, 4-(2-methyl-2,8-diazaspiro[4.5]decan-8-yl)-2-(pyridin-4-yl)pyrido[3,4-d]pyrimidin-5-ol]	1.6	> 10000	–
C[C@H](CO)N1CCC2(CCN(c3nc(-c4ccncc4)nc4cnccc34)CC2)C1 (single isomer, unassigned) [Compound 103]	0.58	740	–

The next lines start with the values.

Ki [1] [nM]	EC50 [2] [nM]	EC50 [3] [nM]	Structure (SMILES)
0.31	380	580	OC1CC(N2CCC3(CCN(c4nc(-c5ccncc5)nc5cnccc45)CC3)C2)C1 (stereo not drawn) [Compound 108, 3-(8-(2-(pyridin-4-yl)pyrido[3,4-d]pyrimidin-4-yl)-2,8-diazaspiro[4.5]decan-2-yl)cyclobutanol]
0.059	1300	1400	OC[C@@H]1CC2(CCN(c3nc(-c4ccncc4)nc4cnccc34)CC2)CN1 (single isomer, unassigned) [Compound 197]
0.041	1400	2400	OC[C@H]1CC2(CCN(c3nc(-c4ccncc4)nc4cnccc34)CC2)CN1 (single isomer, unassigned) [Compound 198]
0.29	280	490	c1cc(-c2nc(N3CCC4(CC3)CCN(C3CCC3)C4)c3ccncc3n2)ccn1 [Compound 131, 4-(2-cyclobutyl-2,8-diazaspiro[4.5]decan-8-yl)-2-(pyridin-4-yl)pyrido[3,4-d]pyrimidine]
0.62	420	290	CC(C)(CO)N1CCC2(CCN(c3nc(-c4ccncc4)nc4cnccc34)CC2)C1 [Compound 107, 2-methyl-2-(8-(2-(pyridin-4-yl)pyrido[3,4-d]pyrimidin-4-yl)-2,8-diazaspiro[4.5]decan-2-yl)propan-1-ol]
0.12	560	–	Cc1n[nH]cc1-c1nc(N2CCC3(CC2)CCN(C2CCOC2)C3)c2ccncc2n1 (stereo not drawn) [Compound 148, 2-(3-methyl-1H-pyrazol-4-yl)-4-(2-(tetrahydrofuran-3-yl)-2,8-diazaspiro[4.5]decan-8-yl)pyrido[3,4-d]pyrimidine]
0.026	170	–	COc1cncc2nc(-c3c[nH]nc3C)nc(N3CCC4(CCN(C)C4)CC3)c12 [Compound 264, 5-methoxy-2-(3-methyl-1H-pyrazol-4-yl)-4-(2-methyl-2,8-diazaspiro[4.5]decan-8-yl)pyrido[3,4-d]pyrimidine]
1.95	8400	–	COC(=O)C1CC2(CCN(c3nc(-c4ccncc4)nc4cnccc34)CC2)CN1 (stereo not drawn) [Compound 171, methyl 8-(2-(pyridin-4-yl)pyrido[3,4-d]pyrimidin-4-yl)-2,8-diazaspiro[4.5]decane-3-carboxylate]
0.11	960	–	CS(=O)(=O)NCCN1CCC2(CCN(c3nc(-c4ccncc4)nc4cnccc34)CC2)C1 [Compound 126, N-(2-(8-(2-(pyridin-4-yl)pyrido[3,4-d]pyrimidin-4-yl)-2,8-diazaspiro[4.5]decan-2-yl)ethyl)methanesulfonamide]
3.5	> 10000	–	[O-][n+]1ccc(-c2nc(N3CCC4(CCNC4)CC3)c3ccncc3n2)cc1 [Compound 251, 4-(4-(2,8-diazaspiro[4.5]decan-8-yl)pyrido[3,4-d]pyrimidin-2-yl)pyridine 1-oxide]
0.41	2500	–	CN1CC2(CCN(c3nc(-c4ccncc4)nc4cnccc34)CC2)CC1CO (racemic) [Example 212, (2-methyl-8-(2-(pyridin-4-yl)pyrido[3,4-d]pyrimidin-4-yl)-2,8-diazaspiro[4.5]decan-3-yl)methanol]
0.53	450	–	C[C@@H](CO)N1CCC2(CCN(c3nc(-c4ccncc4)nc4cnccc34)CC2)C1 (single isomer, unassigned) [Compound 104]
0.1	170	–	OCC1CC2(CCN(c3nc(-c4ccncc4)nc4cnccc34)CC2)CN1C1CCCC1 (stereo not drawn) [Example 206, (2-cyclopentyl-8-(2-(pyridin-4-yl)pyrido[3,4-d]pyrimidin-4-yl)-2,8-diazaspiro[4.5]decan-3-yl)methanol]
1.54	4700	–	Cc1cncc2nc(-c3ccncc3)nc(N3CCC4(CCNC4)CC3)c12 [Compound 162, 5-methyl-2-(pyridin-4-yl)-4-(2,8-diazaspiro[4.5]decan-8-yl)pyrido[3,4-d]pyrimidine]
0.037	1400	–	Cc1n[nH]cc1-c1nc(N2CCC3(CC2)CCN([C@@H]2CCC[C@H]2O)C3)c2ccncc2n1 (single isomer, unassigned) [Compound 184]
0.16	8900	–	CS(=O)(=O)NCC1CC2(CCN(c3nc(-c4ccncc4)nc4cnccc34)CC2)CN1 (stereo not drawn) [Example 224, N-((8-(2-(pyridin-4-yl)pyrido[3,4-d]pyrimidin-4-yl)-2,8-diazaspiro[4.5]decan-3-yl)methyl)methanesulfonamide]
